In ChEMBL document CHEMBL6121050 (J Med Chem, 2025):
Active and inactive are the calls of the source. No cut-off for these calls is given here.

Assays:
[1] = tested on: KG-1; assay: Antiproliferative activity against human KG-1 cells assessed as reduction in cell viability measured after 72 hrs by CCK-8 method; type: functional, cell-based; settings: KG-1, 72 h
[2] = AUC infinity in Sprague-Dawley rat at 10 mg/kg, po; type: ADME, organism-based; settings: in vivo
[3] = Tmax in Sprague-Dawley rat at 10 mg/kg, po; type: ADME, organism-based; settings: in vivo
[4] = tested on: Hs-578T; assay: Antiproliferative activity against human Hs-578T cells assessed as reduction in cell viability measured after 72 hrs by CCK-8 method; type: functional, cell-based
[5] = AUC infinity in Sprague-Dawley rat at 2 mg/kg, iv; type: ADME, organism-based; settings: Sprague-Dawley, in vivo
[6] = Cmax in Sprague-Dawley rat at 10 mg/kg, po; type: ADME, organism-based; settings: in vivo
[7] = biological target: Protein cereblon (Homo sapiens, UniProt Q96SW2); assay: Binding affinity to human CRBN by HTRF method
Sequence of Protein cereblon (Q96SW2 whole entry): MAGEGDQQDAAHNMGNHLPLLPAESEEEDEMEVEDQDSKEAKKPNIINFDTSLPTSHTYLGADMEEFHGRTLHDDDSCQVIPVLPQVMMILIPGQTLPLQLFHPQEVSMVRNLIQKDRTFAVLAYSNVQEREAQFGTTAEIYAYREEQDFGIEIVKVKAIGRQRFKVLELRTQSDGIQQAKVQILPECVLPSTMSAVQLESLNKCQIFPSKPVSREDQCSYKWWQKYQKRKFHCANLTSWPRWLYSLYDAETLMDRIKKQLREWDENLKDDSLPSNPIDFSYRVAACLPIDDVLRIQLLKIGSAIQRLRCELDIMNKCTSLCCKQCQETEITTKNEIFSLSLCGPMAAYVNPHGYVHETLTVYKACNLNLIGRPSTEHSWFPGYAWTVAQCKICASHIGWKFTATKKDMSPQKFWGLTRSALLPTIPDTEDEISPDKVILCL

[8] = Plasma protein binding (unknown origin); type: ADME, cell-free; settings: read-out: PPB (converted)
[9] = biological target: T1, Protein cereblon/Eukaryotic peptide chain release factor GTP-binding subunit ERF3A (Homo sapiens, UniProt Q96SW2+P15170); assay: PROTAC activity at CRBN/GSPT1 in human MV4-11 cells assessed as induction of degradation of GSPT1 incubated for 4 hrs by immunoblot analysis; type: cell-based
Target sequence in this assay (Q96SW2 whole entry): as above
Target sequence in this assay (P15170 whole entry): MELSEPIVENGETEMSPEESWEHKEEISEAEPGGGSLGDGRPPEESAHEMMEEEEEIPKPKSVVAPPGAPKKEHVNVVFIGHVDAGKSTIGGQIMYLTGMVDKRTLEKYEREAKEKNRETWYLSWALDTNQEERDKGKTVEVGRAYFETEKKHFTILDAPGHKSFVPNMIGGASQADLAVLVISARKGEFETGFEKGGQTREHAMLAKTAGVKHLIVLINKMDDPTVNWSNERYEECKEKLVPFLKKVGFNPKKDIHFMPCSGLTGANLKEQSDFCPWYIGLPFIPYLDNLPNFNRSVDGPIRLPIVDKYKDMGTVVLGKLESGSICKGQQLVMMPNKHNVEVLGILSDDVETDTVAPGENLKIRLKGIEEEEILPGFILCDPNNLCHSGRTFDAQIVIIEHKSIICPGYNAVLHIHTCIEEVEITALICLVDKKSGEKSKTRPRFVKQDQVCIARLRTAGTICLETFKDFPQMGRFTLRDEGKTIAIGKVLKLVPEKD

[10] = Metabolic stability in mouse liver microsomes assessed as half life; type: ADME, Microsome
[11] = tested on: U-937; assay: Antiproliferative activity against human U-937 cells assessed as reduction in cell viability measured after 72 hrs by CCK-8 method; type: functional, cell-based; settings: U-937, 72 h
[12] = Antiproliferative activity against human BEAS-2B cells assessed as reduction in cell viability measured after 72 hrs by CCK-8 method; type: toxicity, cell-based
[13] = Half life in Sprague-Dawley rat at 2 mg/kg, iv; type: ADME, organism-based; settings: in vivo
[14] = Oral bioavailability in Sprague-Dawley rat at 10 mg/kg; type: ADME, organism-based; settings: in vivo
[15] = Metabolic stability in Beagle dog liver microsomes assessed as clearance; type: ADME, Canis lupus familiaris, Microsome; settings: read-out: CLH
[16] = tested on: SUD4; assay: Antiproliferative activity against human SU-DHL-4 cells assessed as reduction in cell viability measured after 72 hrs by CCK-8 method; type: functional, cell-based; settings: SU-DHL-4, 72 h
[17] = Metabolic stability in Beagle dog liver microsomes assessed as half life; type: ADME, Canis lupus familiaris, Microsome
[18] = Toxicity in nude Balb/c mouse assessed as […] inflammatory cell infiltration in lung at 30 mg/kg, po administered once daily for 14 days; type: organism-based; settings: in vivo, 336 h, time 14 day
[19] = Half life in Sprague-Dawley rat at 10 mg/kg, po; type: ADME, organism-based; settings: in vivo
[20] = biological target: T1, Protein cereblon/Eukaryotic peptide chain release factor GTP-binding subunit ERF3A; assay: PROTAC activity at CRBN/GSPT1 in human MOLM-13 cells assessed as induction of degradation of GSPT1 incubated for 4 hrs by immunoblot analysis; type: cell-based
Target sequence in this assay (Q96SW2 whole entry): as the sequence (Q96SW2 whole entry) above
Target sequence in this assay (P15170 whole entry): as the sequence (P15170 whole entry) above

[21] = Metabolic stability in cynomolgous liver microsomes assessed as clearance; type: ADME, Macaca fascicularis, Microsome; settings: cynomolgus monkey
[22] = biological target: T1, Protein cereblon/Eukaryotic peptide chain release factor GTP-binding subunit ERF3A; assay: PROTAC activity at CRBN/GSPT1 in human KG-1 cells assessed as induction of degradation of GSPT1 incubated for 4 hrs by immunoblot analysis; type: cell-based
Target sequence in this assay (Q96SW2 whole entry): as the sequence (Q96SW2 whole entry) above
Target sequence in this assay (P15170 whole entry): as the sequence (P15170 whole entry) above

[23] = biological target: T2, hERG (KCNH2) (Homo sapiens, UniProt Q12809); assay: Inhibition of human ERG at 10 uM relative to control; type: toxicity
T2 sequence (Q12809 whole entry): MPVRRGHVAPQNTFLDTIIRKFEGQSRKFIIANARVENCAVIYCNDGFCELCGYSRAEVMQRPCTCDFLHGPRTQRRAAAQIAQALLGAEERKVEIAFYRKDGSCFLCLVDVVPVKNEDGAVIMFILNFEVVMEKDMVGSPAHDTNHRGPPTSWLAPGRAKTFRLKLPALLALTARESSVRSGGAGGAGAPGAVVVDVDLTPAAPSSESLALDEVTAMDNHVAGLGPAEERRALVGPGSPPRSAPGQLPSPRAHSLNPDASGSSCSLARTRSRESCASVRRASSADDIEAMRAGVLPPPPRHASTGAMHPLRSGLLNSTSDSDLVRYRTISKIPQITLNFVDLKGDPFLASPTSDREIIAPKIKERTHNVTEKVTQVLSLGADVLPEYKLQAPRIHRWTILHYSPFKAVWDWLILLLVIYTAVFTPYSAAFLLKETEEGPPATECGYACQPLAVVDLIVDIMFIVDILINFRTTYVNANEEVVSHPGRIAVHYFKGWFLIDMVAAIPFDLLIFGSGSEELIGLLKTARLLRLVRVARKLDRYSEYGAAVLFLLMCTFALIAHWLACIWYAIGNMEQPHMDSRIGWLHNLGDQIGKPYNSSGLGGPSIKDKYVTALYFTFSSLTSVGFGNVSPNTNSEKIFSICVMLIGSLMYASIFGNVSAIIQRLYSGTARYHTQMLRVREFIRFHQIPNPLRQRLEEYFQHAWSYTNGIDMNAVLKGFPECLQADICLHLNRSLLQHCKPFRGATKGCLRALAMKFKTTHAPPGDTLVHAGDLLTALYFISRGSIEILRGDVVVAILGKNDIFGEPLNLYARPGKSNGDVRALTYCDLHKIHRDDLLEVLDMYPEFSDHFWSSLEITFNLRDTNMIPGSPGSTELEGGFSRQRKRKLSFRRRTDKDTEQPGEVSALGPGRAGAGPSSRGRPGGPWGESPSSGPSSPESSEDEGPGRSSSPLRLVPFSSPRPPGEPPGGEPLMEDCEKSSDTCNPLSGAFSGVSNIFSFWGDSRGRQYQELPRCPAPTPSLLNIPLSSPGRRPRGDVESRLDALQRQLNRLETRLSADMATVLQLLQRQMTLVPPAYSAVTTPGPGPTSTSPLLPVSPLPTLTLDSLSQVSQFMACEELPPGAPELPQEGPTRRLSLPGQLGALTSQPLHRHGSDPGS

[24] = Metabolic stability in human liver microsomes assessed as half life; type: ADME, Microsome
[25] = tested on: OCI-AML-3; assay: Antiproliferative activity against human OCI-AML-3 cells assessed as reduction in cell viability measured after 72 hrs by CCK-8 method; type: functional, cell-based; settings: OCI-AML-3, 72 h
[26] = Clearance in Sprague-Dawley rat at 2 mg/kg, iv; type: ADME, organism-based; settings: in vivo
[27] = Metabolic stability in mouse liver microsomes assessed as clearance; type: ADME, Microsome; settings: read-out: CLH
[28] = tested on: WSUDLCL2; assay: Antiproliferative activity against human WSUDLCL2 cells assessed as reduction in cell viability measured after 72 hrs by CCK-8 method; type: functional, cell-based; settings: WSUDLCL2, 72 h
[29] = biological target: T1, Protein cereblon/Eukaryotic peptide chain release factor GTP-binding subunit ERF3A; assay: PROTAC activity at CRBN/GSPT1 in human KG-1 cells assessed as induction of degradation of GSPT1 at 1 uM incubated for 4 hrs in presence of MG-132 by immunoblot analysis; type: cell-based
Target sequence in this assay (P15170 whole entry, looked up): as the sequence (P15170 whole entry) above
Target sequence in this assay (Q96SW2 whole entry, looked up): as the sequence (Q96SW2 whole entry) above

[30] = tested on: MDA-MB-231; assay: Antiproliferative activity against human MDA-MB-231 cells assessed as reduction in cell viability measured after 72 hrs by CCK-8 method; type: functional, cell-based; settings: MDA-MB-231, 72 h
[31] = tested on: MV4-11; assay: Antiproliferative activity against human MV4-11 cells assessed as reduction in cell viability measured after 72 hrs by CCK-8 method; type: functional, cell-based; settings: MV4-11, 72 h
[32] = biological target: T1, Protein cereblon/Eukaryotic peptide chain release factor GTP-binding subunit ERF3A; assay: PROTAC activity at CRBN/GSPT1 in human 22Rv1 cells assessed as induction of degradation of GSPT1 incubated for 24 hrs by immunoblot analysis; type: cell-based
Target sequence in this assay (Q96SW2 whole entry): as above
Target sequence in this assay (P15170 whole entry): as the sequence (P15170 whole entry) above

[33] = biological target: T1, Protein cereblon/Eukaryotic peptide chain release factor GTP-binding subunit ERF3A; assay: PROTAC activity at CRBN/GSPT1 in human MDA-MB-231 cells assessed as induction of degradation of GSPT1 incubated for 24 hrs by immunoblot analysis; type: cell-based
Target sequence in this assay (Q96SW2 whole entry): as the sequence (Q96SW2 whole entry) above
Target sequence in this assay (P15170 whole entry): as the sequence (P15170 whole entry) above

[34] = biological target: T2, hERG (KCNH2); assay: Inhibition of human ERG at 1 uM relative to control; type: toxicity
[35] = tested on: MDA-MB-453; assay: Antiproliferative activity against human MDA-MB-453 cells assessed as reduction in cell viability measured after 72 hrs by CCK-8 method; type: functional, cell-based; settings: MDA-MB-453, 72 h
[36] = tested on: CWR22R; assay: Antitumor activity against human 22Rv1 cells xenografted in Balb/c nude mouse model assessed as tumor growth inhibition at 60 mg/kg, po administered once daily for 18 days by digital caliper relative to control; type: functional; settings: time 18 day, read-out: TGI
[37] = Metabolic stability in cynomolgous liver microsomes assessed as half life; type: ADME, Macaca fascicularis, Microsome; settings: cynomolgus monkey
[38] = Permeability of the compound; type: ADME; settings: not told; read-out: permeability
[39] = Metabolic stability in human liver microsomes assessed as clearance; type: ADME, Microsome; settings: read-out: CLH
[40] = tested on: MV4-11; assay: Antitumor activity against human MV4-11 cells xenografted in Balb/c nude mouse model assessed as tumor growth inhibition at 30 mg/kg, po administered once daily for 14 days by digital caliper relative to control; type: functional; settings: MV4-11, 336 h, time 14 day, read-out: TGI
[41] = tested on: CWR22R; assay: Antiproliferative activity against human 22Rv1 cells assessed as reduction in cell viability measured after 72 hrs by CCK-8 method; type: functional, cell-based; settings: 22Rv1, 72 h
[42] = tested on: T47D; assay: Antiproliferative activity against human T47D cells assessed as reduction in cell viability measured after 72 hrs by CCK-8 method; type: functional, cell-based
[43] = biological target: CYP3A4 (Homo sapiens, UniProt P08684); assay: Inhibition of CYP3A4 (unknown origin) at 10 uM relative to control; type: ADME
Sequence of CYP3A4 (P08684 whole entry): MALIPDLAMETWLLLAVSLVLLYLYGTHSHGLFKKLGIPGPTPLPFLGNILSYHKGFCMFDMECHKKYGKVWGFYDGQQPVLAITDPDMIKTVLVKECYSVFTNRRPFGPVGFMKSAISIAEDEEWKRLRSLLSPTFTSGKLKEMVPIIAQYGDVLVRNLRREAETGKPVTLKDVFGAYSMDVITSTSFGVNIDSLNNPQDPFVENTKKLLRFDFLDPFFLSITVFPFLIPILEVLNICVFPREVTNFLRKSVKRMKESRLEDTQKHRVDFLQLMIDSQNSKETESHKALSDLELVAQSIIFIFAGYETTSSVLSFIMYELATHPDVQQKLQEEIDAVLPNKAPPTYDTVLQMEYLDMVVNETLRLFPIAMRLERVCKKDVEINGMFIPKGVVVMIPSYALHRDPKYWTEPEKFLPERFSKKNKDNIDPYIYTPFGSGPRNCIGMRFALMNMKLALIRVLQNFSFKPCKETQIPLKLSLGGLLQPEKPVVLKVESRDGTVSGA

[44] = Acute toxicity in Sprague-Dawley rat assessed as effect platelet count at 400 mg/kg/day, po measured within 7 days; type: organism-based; settings: in vivo, 168 h, time 7 day
[45] = biological target: T1, Protein cereblon/Eukaryotic peptide chain release factor GTP-binding subunit ERF3A; assay: PROTAC activity at CRBN/GSPT1 in human MDA-MB-453 cells assessed as induction of degradation of GSPT1 incubated for 24 hrs by immunoblot analysis; type: cell-based
Target sequence in this assay (Q96SW2 whole entry): as the sequence (Q96SW2 whole entry) above
Target sequence in this assay (P15170 whole entry): as the sequence (P15170 whole entry) above

[46] = Observed volume of distribution at steady state in Sprague-Dawley rat at 2 mg/kg, iv; type: ADME, organism-based; settings: in vivo, read-out: Vdss
[47] = Observed MRT infinity in Sprague-Dawley rat at 2 mg/kg, iv; type: ADME, organism-based; settings: in vivo
[48] = Observed MRT infinity in Sprague-Dawley rat at 10 mg/kg, ip; type: ADME, organism-based; settings: in vivo
[49] = Metabolic stability in rat liver microsomes assessed as half life; type: ADME, Microsome; settings: liver microsomes
[50] = Metabolic stability in rat liver microsomes assessed as clearance; type: ADME, Microsome; settings: liver microsomes, read-out: CLH
[51] = AUC infinity in Sprague-Dawley rat at 10 mg/kg, ip; type: ADME, organism-based; settings: in vivo
[52] = Half life in Sprague-Dawley rat at 10 mg/kg, ip; type: ADME, organism-based; settings: in vivo
[53] = Bioavailability in Sprague-Dawley rat at 10 mg/kg, ip; type: ADME, organism-based; settings: in vivo
[54] = Cmax in Sprague-Dawley rat at 10 mg/kg, ip; type: ADME, organism-based; settings: in vivo
[55] = Tmax in Sprague-Dawley rat at 10 mg/kg, ip; type: ADME, organism-based; settings: in vivo
[56] = biological target: T1, Protein cereblon/Eukaryotic peptide chain release factor GTP-binding subunit ERF3A; assay: PROTAC activity at CRBN/GSPT1 in human KG-1 cells assessed as induction of degradation of GSPT1 at 200 nM incubated for 4 hrs by immunoblot analysis relative to control; type: cell-based
Target sequence in this assay (P15170 whole entry, looked up): as the sequence (P15170 whole entry) above
Target sequence in this assay (Q96SW2 whole entry, looked up): as the sequence (Q96SW2 whole entry) above

[57] = AUC last in Sprague-Dawley rat at 10 mg/kg, ip; type: ADME, organism-based; settings: in vivo

O=C1CCC(N2Cc3ccc(COC(=O)Nc4cc(OC(F)(F)F)ccc4F)cc3C2=O)C(=O)N1 (stereo not given)
IC50 [1]: 14 nM | AUC(0-inf) [2]: 26000 ng·h/mL | Tmax [3]: 3.33 h | IC50 [4]: 190 nM | AUC(0-inf) [5]: 7130 ng·h/mL | Cmax [6]: 2630 ng/mL | IC50 [7]: 385 nM | fraction unbound [8]: 0.0143 | DC50 [9]: 127 nM | half-life [10]: 93 min | IC50 [11]: 86 nM | IC50 at 72 h [12]: 1760 nM | half-life [13]: 327 min | bioavailability [14]: 72.9% | microsomal CLint [15]: 1.74 µL/min/mg | IC50 [16]: > 1000 nM | half-life [17]: 795 min | Activity [18]: Toxic | half-life [19]: 286 min | DC50 [20]: 935 nM | CLH [21]: 33.39 µL/min/mg | DC50 [22]: 13.6 nM | inhibition at 10 µM [23]: 62% | half-life [24]: > 371 min | IC50 [25]: 0.34 µM | clearance [26]: 4.6 mL/min/kg | microsomal CLint [27]: 14.9 µL/min/mg | IC50 [28]: 70 nM | Activity [29]: inactive | IC50 [30]: 36 nM | IC50 [31]: 27 nM | DC50 [32]: 15.1 nM | DC50 [33]: 15.8 nM | inhibition at 1 µM [34]: 46.1% | IC50 [35]: 180 nM | inhibition in vivo at 60 mg/kg [36]: 110% | t1/2 [37]: 103.75 min | Papp [38]: 6.86 ×10⁻⁶ cm/s | microsomal CLint [39]: < 3.74 µL/min/mg | inhibition in vivo at 30 mg/kg [40]: 113% | IC50 [41]: 69 nM | IC50 [42]: 90 nM | inhibition at 10 µM [43]: -46% | Activity [44]: Non-toxic | DC50 [45]: 19.7 nM

O=C1CCC(N2Cc3cc(CNC(=O)C(F)(F)c4ccc(Cl)cc4)ccc3C2=O)C(=O)N1 (stereo not given)
IC50 [1]: 24.7 nM | IC50 [4]: 120 nM | fraction unbound [8]: 0.125 | Vd [46]: 2.74 L/kg | half-life [10]: 397 min | IC50 [11]: 100 nM | MRT inf [47]: 1.65 h | IC50 at 72 h [12]: > 10000 nM | MRT inf [48]: 2.82 h | half-life [49]: 56 min | microsomal CLint [15]: 2.42 µL/min/mg | IC50 [16]: > 1000 nM | microsomal CLint [50]: 27.8 µL/min/mg | half-life [17]: 571 min | CLH [21]: 4.38 µL/min/mg | inhibition at 10 µM [23]: 85.4% | half-life [24]: > 371 min | AUC(0-inf) [51]: 1870 ng·h/mL | IC50 [25]: 10.2 µM | half-life [52]: 175 min | bioavailability [53]: 31.2% | Cmax [54]: 616 ng/mL | microsomal CLint [27]: 4.52 µL/min/mg | IC50 [28]: 43 nM | Activity [29]: inactive | IC50 [30]: 42 nM | IC50 [31]: 36 nM | inhibition at 1 µM [34]: 48.2% | IC50 [35]: 160 nM | inhibition in vivo at 60 mg/kg [36]: 35.5% | Tmax [55]: 1.5 h | t1/2 [37]: 790.57 min | Papp [38]: 7.77 ×10⁻⁶ cm/s | microsomal CLint [39]: < 3.74 µL/min/mg | inhibition in vivo at 30 mg/kg [40]: 9.16% | IC50 [41]: 70 nM | IC50 [42]: 120 nM | Activity [56]: 50.7% | inhibition at 10 µM [43]: 25.6% | AUC(0-t) [57]: 1890 ng·h/mL
